Test system: Primary cortical neurons
Assay: DHA peroxidation in primary cortical neurons, MDA levels measured by LC-MS
Assay type: cell-based, Sprague-Dawley rat
Conditions: for MDA concentration (DHA peroxidation): by LCMS/MS
Experimental: Primary cortical neurons from postnatal day 3-5 (P3-P5) Sprague-Dawley rat pup's brain were pretreated with/without natural vitamin E in the form of RRR-a-tocopherol (15 μM or 45 μM), and/or lutein (0.32 nM or 0.5 nM) individually and in combination for 12 hours. (Note that μM is used to refer to a micromolar concentration and nM is used to refer to a nanomolar concentration and concentrations refer to those reached in the test tubes containing the cortical neurons.) After 12 hours DHA (90 μM) was added for an additional 12 hours. After 12 hours samples were washed in PS and neurons were lysed. Peroxides generated from DHA and incorporated into the neuronal cell membrane were assessed by measuring the MDA levels using liquid chromatography-mass spectometry (LC-MS) method.

`CC1=C[C@H](O)CC(C)(C)[C@H]1/C=C/C(C)=C/C=C/C(C)=C/C=C/C=C(C)/C=C/C=C(C)/C=C/C1=C(C)C[C@@H](O)CC1(C)C` [lutein] was tested, and the “effect on retarding DHA peroxidation” value (lutein alone, without RRR alpha tocopherol, then DHA 90 μM) was “essentially no effect”.
For `CC/C=C\C/C=C\C/C=C\C/C=C\C/C=C\C/C=C\CCC(=O)O` [DHA, docosahexaenoic acid], the “MDA concentration (DHA peroxidation)” value (DHA 90 μM for 12 hours, without either RRR alpha tocopherol or lutein) was “about 110”.
`Cc1c(C)c2c(c(C)c1O)CC[C@@](C)(CCC[C@H](C)CCC[C@H](C)CCCC(C)C)O2` [RRR alpha tocopherol, RRR-alpha tocopherol] was tested, and the “MDA concentration (DHA peroxidation)” value (15 μM RRR alpha tocopherol pretreatment 12 hours, then DHA 90 μM 12 hours) was “about 75%” and the “MDA concentration (DHA peroxidation)” value (45 μM RRR alpha tocopherol pretreatment 12 hours, then DHA 90 μM 12 hours, p<0.001) was “about 57%”.

Reference: patent US20160279095A1, “USE OF NUTRITIONAL COMPOSITIONS INCLUDING NATURAL VITAMIN E, AND POLYUNSATURATED FATTY ACID” (ABBOTT LABORATORIES, priority 2013, published 2016)
